{
  "source": "patent US7786298B2",
  "about": "“Compounds and methods for nucleic acid mismatch detection” (California Institute of Technology, priority 2006, dated 2010)",
  "tested_on": "oligonucleotides containing a central CC mismatch",
  "assay": "Photocleavage testing, denaturing PAGE of 5′-32P-end-labeled oligonucleotides",
  "assay_type": "biochemical",
  "settings": "duplex 1 μM, Rh 1 μM, 20 mM NaCl, 10 mM NaPi, pH 7.1, 30 min, irradiation 5 min (325-450 nm); fully matched and mismatched oligonucleotides",
  "description": "Compounds PEG-RhOG and [Rh(chrysi)(phen)(^PEGbipy)]^3+(i.e., compound A and intermediate 2, respectively, as described above) were used for photocleavage testing. Denaturing PAGE experiments with 5′-32P-end-labeled oligonucleotides containing or lacking a central CC mismatch were employed to test specific site targeting. Duplex DNA (1 μM) was incubated with variable concentrations of compound A (100 nm to 5 μM) for 30 min and then irradiated for 5 min.\nConditions were duplex (1 μM), Rh (1 μM) in 20 mM NaCl, 10 mM NaPi, pH 7.1 for 30 min at ambient temperature followed by irradiation for 5 min with a solar simulator (325-450 nm). Lanes 1, 2, 11, and 12 show Maxam-Gilbert sequencing reactions for matched (1, 2) and mismatched (11, 12) DNA. For matched and mismatched DNA, respectively, lanes 3 and 7 show fragments irradiated with no metal complex; lanes 4 and 8 show fragments with compound A but no irradiation; lanes 5, 6, 9, and 10 show fragments after irradiation in the presence of compound A (5, 9) and intermediate 2 (6, 10). The DNA sequence was 5′-32P-end-labeled-GCGCCGTCGTXCATGTG-3′ (SEQ ID NO:4) where X=C, G with a complement containing a matched or mismatched C at the bold site. The arrow marks the mismatched site.",
  "data": [
    {"substance": "[Rh(chrysi)(phen)(^PEGbipy)]^3+ [intermediate 2]", "values": [
      {"measurement": "photocleavage on autoradiogram of denaturing 20% polyacrylamide gel", "result": "photocleavage"}
    ]}
  ]
}
